In patent US20050222402A1, “Dna encoding rat bombesin receptor subtype-3 (brs-3) and uses thereof” (priority 2001, published 2005):
Non-standard residues stand in square brackets, D forms with d. Residues, ends and D or L forms follow the SMILES beside them. Nle = CCCC[C@H](N)C(=O)O; βAla = NCCC(=O)O

Legend:
Rat BRS-3/E3 (RB3-E3) = target: T1, Rat BRS-3/E3 (RB3-E3) (Rattus norvegicus, UniProt Q8K418, A302V/D306A/E299Q/E303D/P308H/S300T/V307M/V310I/V311F/Y298S); experiment: Calcium mobilization assay (FLIPR), chimeric receptor; assay type: cell-based, rat/human
T1 construct: expressed in transfected cells; host or cells: 293EBNA cells, pE3 expression vector
T1 sequence (Q8K418 1-399 Y298S/E299Q/S300T/A302V/E303D/D306A/V307M/P308H/V310I/V311F): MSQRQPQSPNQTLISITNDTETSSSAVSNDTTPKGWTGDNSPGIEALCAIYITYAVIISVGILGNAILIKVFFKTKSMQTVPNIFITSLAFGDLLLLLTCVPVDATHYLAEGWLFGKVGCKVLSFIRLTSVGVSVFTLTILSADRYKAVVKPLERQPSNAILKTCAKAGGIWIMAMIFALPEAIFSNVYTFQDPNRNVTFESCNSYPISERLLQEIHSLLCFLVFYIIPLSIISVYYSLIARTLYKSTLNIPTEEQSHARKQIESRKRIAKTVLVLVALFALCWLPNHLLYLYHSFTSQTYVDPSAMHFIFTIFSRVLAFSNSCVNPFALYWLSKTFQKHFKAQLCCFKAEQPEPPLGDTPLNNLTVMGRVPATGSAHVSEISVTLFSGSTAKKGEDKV
From the text: (§1) Chimeric rat/human BRS-3 genes and substitution mutant rat BRS-3 genes were constructed by using PCR mutagenesis techniques (Fong, T. in Structure-function analysis of G protein coupled receptors, J, Wess, ed, Wiley-Liss, pp. 1-20, (1999)). All the mutant and wild type BRS-3 genes were cloned into pE3 expression vector which contains CMV early promoter, hygromycin-resistance gene and OriP segment from Epstein-Bar virus.
(§2) The functional activity of rat BRS-3 was also studied by measuring the agonist-induced calcium mobilization response using a Fluorescence Imaging Plate Reader (Molecular Devices, Sunnyvale, Calif.). Transfected 293EBNA cells were plated onto poly-D-lysine coated 96-well plates with black wall and clear bottom (Becton Dickinson, Franklin Lakes, N.J.). After 16-48 hr culture, the cells were loaded with 4 uM Fluo-3-AM fluorescent calcium-indicator dye (Molecular Probes, Eugene, OR) in assay buffer (Hank's balanced salts solution, 10 mM HEPES, pH7.4, 0.1% bovine serum albumin, 2.5 mM probenecid).
(§3) The changes in intracellular calcium concentration, as indicated by Fluo-3 fluorescence, were immediately measured by FLIPR. Maximal changes in fluorescence over base line were used to determine agonist response. […]
(§4) The EC50 values were mean±S.E. calculated from dose-response curves of 3-5 repeated experiments using FLIPR assays.

Rat BRS-3/E2 (RB3-E2) = target: T2, Rat BRS-3/E2 (RB3-E2) (Rattus norvegicus, UniProt Q8K418, E210K/I208V/N204T/Q192R/R196K/R211K/V198M); experiment: as above; assay type: cell-based, rat/human
T2 construct: expressed in transfected cells; host or cells: 293EBNA cells, pE3 expression vector
T2 sequence (Q8K418 1-399 Q192R/R196K/V198M/N204T/I208V/E210K/R211K): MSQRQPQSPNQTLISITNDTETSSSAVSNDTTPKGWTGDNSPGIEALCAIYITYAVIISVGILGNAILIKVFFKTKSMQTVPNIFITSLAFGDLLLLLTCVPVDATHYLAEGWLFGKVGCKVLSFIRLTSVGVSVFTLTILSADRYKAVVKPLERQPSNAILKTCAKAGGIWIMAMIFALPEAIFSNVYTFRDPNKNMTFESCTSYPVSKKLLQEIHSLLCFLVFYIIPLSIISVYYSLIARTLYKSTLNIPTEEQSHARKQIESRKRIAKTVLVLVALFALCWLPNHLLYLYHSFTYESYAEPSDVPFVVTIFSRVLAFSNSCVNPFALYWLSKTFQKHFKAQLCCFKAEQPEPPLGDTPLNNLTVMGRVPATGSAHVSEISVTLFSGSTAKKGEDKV
From the text: as §1, §2, §3, §4

`CCCC[C@H](NC(=O)[C@H](Cc1ccccc1)NC(=O)[C@H](Cc1cnc[nH]1)NC(=O)CCNC(=O)[C@@H](NC(=O)[C@H](C)NC(=O)[C@H](Cc1c[nH]c2ccccc12)NC(=O)[C@H](CCC(N)=O)NC(=O)[C@H](N)Cc1ccc(O)cc1)C(C)C)C(N)=O` [dYB, [D-Tyr6-betaAla11-Phe13-Nle14] bombesin (6-14)] (H-[dY]QWAV[βAla]HF[Nle]-NH2) was tested, and the EC50 (Rat BRS-3/E3 (RB3-E3)) was 2.8 ± 0.6 nM and the EC50 (Rat BRS-3/E2 (RB3-E2)) was 990 ± 140 nM.
